Assay results from PMC9019572, “Design, Synthesis, and Biological Evaluation of [1,2,4]triazolo[4,3-a] Pyrazine Derivatives as Novel Dual c-Met/VEGFR-2 Inhibitors” (Frontiers in Chemistry, 2022).
Where two headings read alike, the source gives them in different places.

Tests used:
c-Met kinase = c-Met kinase (Homo sapiens, UniProt P08581); assay: c-Met kinase inhibition assay; type: biochemical
Protocol: The kinase assay was performed by Pratzer Biotechnology Co. Ltd. (Changsha, China).

A549 cells = assay: MTT antiproliferative assay, A549; type: cell-based; conditions: Homo sapiens, 72 h;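 note: formazan read-out dissolved in DMSO, each compound assayed three times, IC50 computed with Bliss software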
Protocol: The cell lines used in the experiment were available from the Cell Culture Collection of Chinese Academy of Sciences (Shanghai Institutes for Biological Sciences, Chinese Academy of Sciences). […] The formazan crystals were dissolved in 100 µl of DMSO in each well. […] All compounds were tested three times in each of the cell lines. The results, expressed as inhibition rates or IC50 (half-maximal inhibitory concentration), were the averages of two determinations and calculated by using the Bacus Laboratories Incorporated Slide Scanner (Bliss) software.

Hela cells = assay: MTT antiproliferative assay, Hela; type: cell-based; conditions: Homo sapiens, 72 h, read-out: IC50 Hela
Protocol: (§1) The cell lines used in the experiment were available from the Cell Culture Collection of Chinese Academy of Sciences (Shanghai Institutes for Biological Sciences, Chinese Academy of Sciences). Referring to the previous experimental methods of our research, all cells were cultured in suitable medium such as DMEM or RPMI-1640 containing 10% fetal bovine serum at 37°C in 5% CO2 and propagated for 24 h. Then the compounds with different gradient concentrations were added into the medium and incubated for 72 h, and then MTT (thiazolyl blue tetrazolium bromide) with a concentration of 5 µg/ml was added to every well for 4 h at 37°C. The formazan crystals were dissolved in 100 µl of DMSO in each well. The absorbancy at 492 nm (for absorbance of MTT formazan) and 630 nm (for the reference wavelength) was measured with an ELISA reader. All compounds were tested three times in each of the cell lines. The results, expressed as inhibition rates or IC50 (half-maximal inhibitory concentration), were the averages of two determinations and calculated by using the Bacus Laboratories Incorporated Slide Scanner (Bliss) software.

MCF-7 cells = assay: MTT antiproliferative assay, MCF-7; type: cell-based; conditions: Homo sapiens, read-out: IC50 MCF-7
Protocol: as §1

PC-9 cells = assay: Antiproliferative activity, PC-9; type: cell-based; conditions: Homo sapiens
Protocol: as §1

H460 cells = assay: Antiproliferative activity, H460; type: cell-based; conditions: Homo sapiens, NCI-H460
Protocol: as §1

H1975 cells = assay: Antiproliferative activity, H1975; type: cell-based; conditions: Homo sapiens, NCI-H1975
Protocol: as §1

Chain of c-Met kinase (P08581 25-1390): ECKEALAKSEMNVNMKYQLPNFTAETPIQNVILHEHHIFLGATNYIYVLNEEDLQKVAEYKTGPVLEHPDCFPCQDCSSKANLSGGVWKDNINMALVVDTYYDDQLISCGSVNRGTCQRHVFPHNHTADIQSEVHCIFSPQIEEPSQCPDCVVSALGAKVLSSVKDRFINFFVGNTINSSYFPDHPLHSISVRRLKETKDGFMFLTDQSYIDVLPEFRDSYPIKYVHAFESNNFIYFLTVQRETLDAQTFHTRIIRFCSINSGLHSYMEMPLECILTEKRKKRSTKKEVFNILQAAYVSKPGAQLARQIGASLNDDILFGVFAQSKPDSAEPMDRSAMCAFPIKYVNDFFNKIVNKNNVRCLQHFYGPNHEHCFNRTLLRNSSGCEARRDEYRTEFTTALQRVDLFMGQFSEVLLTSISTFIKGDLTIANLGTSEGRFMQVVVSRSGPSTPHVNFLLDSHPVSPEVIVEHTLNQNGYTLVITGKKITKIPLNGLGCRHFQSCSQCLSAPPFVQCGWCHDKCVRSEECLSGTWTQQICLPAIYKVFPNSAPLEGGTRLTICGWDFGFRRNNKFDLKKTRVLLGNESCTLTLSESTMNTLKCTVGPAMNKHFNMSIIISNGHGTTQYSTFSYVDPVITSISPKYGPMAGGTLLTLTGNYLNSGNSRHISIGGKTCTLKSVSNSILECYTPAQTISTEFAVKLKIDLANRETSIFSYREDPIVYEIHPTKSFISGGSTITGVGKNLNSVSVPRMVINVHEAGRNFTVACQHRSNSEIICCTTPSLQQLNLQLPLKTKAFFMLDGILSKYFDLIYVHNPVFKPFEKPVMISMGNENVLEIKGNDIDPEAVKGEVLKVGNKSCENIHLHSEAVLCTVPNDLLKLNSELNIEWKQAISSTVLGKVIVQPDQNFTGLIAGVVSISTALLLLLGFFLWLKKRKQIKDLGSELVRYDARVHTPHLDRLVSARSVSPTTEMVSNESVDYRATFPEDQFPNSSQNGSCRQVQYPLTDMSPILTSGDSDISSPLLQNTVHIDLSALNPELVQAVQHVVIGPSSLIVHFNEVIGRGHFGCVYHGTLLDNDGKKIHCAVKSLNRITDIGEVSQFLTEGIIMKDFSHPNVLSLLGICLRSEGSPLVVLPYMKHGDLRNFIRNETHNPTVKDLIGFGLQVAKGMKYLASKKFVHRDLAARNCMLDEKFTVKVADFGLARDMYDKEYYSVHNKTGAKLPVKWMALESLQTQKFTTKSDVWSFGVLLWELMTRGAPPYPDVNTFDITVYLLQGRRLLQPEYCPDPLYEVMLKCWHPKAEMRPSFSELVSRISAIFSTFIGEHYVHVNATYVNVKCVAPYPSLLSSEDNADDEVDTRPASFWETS

Row | SMILES | IC50 (c-Met kinase) [µM] | melting point [°C] | IC50 (A549 cells) [µM] | IC50 (Hela cells; MTT, Hela cells) [µM] | IC50 (MCF-7 cells; MCF7, MTT, 72 h, MCF-7 cells) [µM] | IC50 (PC-9 cells) [µM] | IC50 (H460 cells) [µM] | IC50 (H1975 cells) [µM] | IC50 (Hela cells; HeLa) [µM] | IC50 (MCF-7 cells; MCF7, 72 h) [µM]
1 | O=C(Nc1ccc(Oc2nccn3cnnc23)c(F)c1)c1cnn(-c2ccc(Cl)cc2)c1C(F)(F)F [16 k] | 0.38 |  | 6.18 ± 0.34 | 12.9 ± 1.06 | 6.51 ± 0.63 |  |  |  |  | 
2 | O=C(Nc1ccc(Oc2nccn3cnnc23)cc1)c1cnn(-c2ccc(Cl)cc2)c1C(F)(F)F [16d] | 0.722 | 261.3 to 263.5 | 12.3 ± 0.98 | 19.5 ± 1.94 | 11.5 ± 1.06 |  |  |  |  | 
3 | O=C(Nc1ccc(Oc2nccn3cnnc23)cc1)c1cc(-c2cccs2)n[nH]1 [16e] | 0.342 |  | 5.44 ± 0.42 | 11.2 ± 0.96 | 7.13 ± 0.63 |  |  |  |  | 
4 | O=C(Nc1ccc(Oc2nccn3cnnc23)cc1)c1cc(-c2cccs2)no1 [16f] | > 1 | 291.5 to 293.1 | 27.3 ± 0.86 | > 50 | > 50 |  |  |  |  | 
5 | O=C(Nc1ccc(Oc2nccn3cnnc23)c(F)c1)c1cc(-c2cccs2)no1 [16l] | 0.725 |  | 11.4 ± 0.76 | 23.3 ± 2.12 | 12 ± 1.24 |  |  |  |  | 
6 | Cc1nc(-c2ccccc2)sc1C(=O)Nc1ccc(Oc2nccn3c(C)nnc23)c(F)c1 [17 g] |  | 299 to 302.1 |  |  |  |  |  |  |  | 
7 | Cc1nc(-c2ccc(F)cc2)sc1C(=O)Nc1ccc(Oc2nccn3c(C)nnc23)c(F)c1 [17 k] |  |  | 15.3 ± 0.51 | 25.3 ± 2.4 | 18.2 ± 1.28 |  |  |  |  | 
8 | Cc1nnc2c(Oc3ccc(NC(=O)c4cc(-c5cccs5)no4)cc3F)nccn12 [17 m] | 0.653 |  | 8.84 ± 0.97 | 17.4 ± 1.56 | 9.34 ± 1.03 |  |  |  |  | 
9 | Cc1nc(-c2ccc(F)cc2)sc1C(=O)Nc1ccc(Oc2nccn3c(C)nnc23)cc1 [17d] | 0.289 |  | 5.21 ± 0.37 | 10.7 ± 1.42 | 6.95 ± 0.67 |  |  |  |  | 
10 | Cc1nnc2c(Oc3ccc(NC(=O)c4cnn(-c5ccc(Cl)cc5)c4C(F)(F)F)cc3)nccn12 [17e] | 0.077 |  | 2.05 ± 0.19 | 4.78 ± 0.43 | 1.74 ± 0.22 |  |  |  |  | 
11 | Cc1nnc2c(Oc3ccc(NC(=O)c4cc(-c5cccs5)n[nH]4)cc3)nccn12 [17f] | 0.3 | 275.6 to 278.1 | 5.73 ± 0.54 | 12.4 ± 1.53 | 6.38 ± 0.85 |  |  |  |  | 
12 | Cc1nc(-c2cccnc2)sc1C(=O)Nc1ccc(Oc2nccn3c(C)nnc23)c(F)c1 [17i] |  | 220.7 to 223.1 | 188 | > 50 | 25.4 ± 1.54 |  |  |  |  | 
13 | Cc1nc(-c2ccncc2)sc1C(=O)Nc1ccc(Oc2nccn3c(C)nnc23)c(F)c1 [17j] | 0.45 |  | 7.16 ± 0.45 | 14.2 ± 1.64 | 7.31 ± 0.77 |  |  |  |  | 
14 | COc1cc2c(Oc3ccc(NC(=O)C4(C(=O)Nc5ccc(F)cc5)CC4)cc3F)ccnc2cc1OCCCN1CCOCC1 [Foretinib, foretinib, reference compound] |  |  |  |  |  |  |  |  | 1.18 ± 0.25 | 0.93 ± 0.09
15 | CNC(=O)c1cc(Oc2ccc(NC(=O)Nc3ccc(Cl)c(C(F)(F)F)c3)cc2)ccn1 [Sorafenib, sorafenib, reference compound] |  |  |  |  |  | 5.41 ± 0.73 | 5.27 ± 0.72 | 10.2 ± 1 |  | 

The next lines start with results.

Row | IC50 (c-Met kinase) [µM] | melting point [°C] | IC50 (A549 cells) [µM] | IC50 (Hela cells; MTT, Hela cells) [µM] | IC50 (MCF-7 cells; MCF7, MTT, 72 h, MCF-7 cells) [µM] | IC50 (PC-9 cells) [µM] | IC50 (H460 cells) [µM] | IC50 (H1975 cells) [µM] | SMILES | IC50 (Hela cells; HeLa) [µM] | IC50 (MCF-7 cells; MCF7, 72 h) [µM]
16 | 0.658 | 278.1 to 282.7 | 8.21 ± 0.65 | 17.7 ± 1.29 | 9.17 ± 1.03 |  |  |  | Cc1nc(-c2ccccc2)sc1C(=O)Nc1ccc(Oc2nccn3cnnc23)c(F)c1 [16 g] |  | 
17 | 0.437 | 203.4 to 207.6 | 6.56 ± 0.42 | 13.9 ± 1.59 | 8.18 ± 1.12 |  |  |  | Cc1nc(-c2ccccn2)sc1C(=O)Nc1ccc(Oc2nccn3cnnc23)c(F)c1 [16 h] |  | 
18 | 0.794 | 265.8 to 268.1 | 12.4 ± 0.97 | 21.5 ± 1.78 | 13.8 ± 1.23 |  |  |  | Cc1nc(-c2ccccc2)sc1C(=O)Nc1ccc(Oc2nccn3cnnc23)cc1 [16a] |  | 
19 | 0.379 |  | 6.46 ± 0.33 | 12.2 ± 1.08 | 7.87 ± 0.42 |  |  |  | Cc1nc(-c2ccccn2)sc1C(=O)Nc1ccc(Oc2nccn3cnnc23)cc1 [16b] |  | 
20 | 0.345 | 235.6 to 237.5 | 5.58 ± 0.75 | 14.3 ± 1.15 | 6.45 ± 0.81 |  |  |  | Cc1nc(-c2ccncc2)sc1C(=O)Nc1ccc(Oc2nccn3cnnc23)cc1 [16c] |  | 
21 |  |  | 17.4 ± 0.97 | 25 ± 2.17 | 19 ± 1.32 |  |  |  | Cc1nc(-c2cccnc2)sc1C(=O)Nc1ccc(Oc2nccn3cnnc23)c(F)c1 [16i] |  | 
22 | 0.11 | 226.9 to 229.1 | 3.26 ± 0.67 | 6.17 ± 0.58 | 3.68 ± 0.34 |  |  |  | Cc1nc(-c2ccncc2)sc1C(=O)Nc1ccc(Oc2nccn3cnnc23)c(F)c1 [16j] |  | 
23 | 0.156 |  | 3.56 ± 0.32 | 7.43 ± 0.38 | 4.25 ± 0.76 |  |  |  | Cc1nc(-c2ccccn2)sc1C(=O)Nc1ccc(Oc2nccn3c(C)nnc23)c(F)c1 [17 h] |  | 
24 | 0.055 |  | 1.23 ± 0.13 | 2.31 ± 0.29 | 1.43 ± 0.21 |  |  |  | Cc1nc(-c2ccccc2)sc1C(=O)Nc1ccc(Oc2nccn3c(C)nnc23)cc1 [17a] |  | 
25 | 0.245 |  | 4.31 ± 0.49 | 9.46 ± 0.58 | 5.15 ± 0.72 |  |  |  | Cc1nc(-c2ccccn2)sc1C(=O)Nc1ccc(Oc2nccn3c(C)nnc23)cc1 [17b] |  | 
26 | 0.532 | 270.7 to 273.8 | 7.68 ± 0.71 | 15.9 ± 1.1 | 8.79 ± 0.89 |  |  |  | Cc1nc(-c2ccncc2)sc1C(=O)Nc1ccc(Oc2nccn3c(C)nnc23)cc1 [17c] |  | 
